Source: US20050209278A1, “Piperidinyl- and piperazinyl-sulfonylmethyl hydroxamic acids and their use as protease inhibitors” (priority 2002, published 2005)

Key:
MMP-13 = target: T1, MMP-13 (Homo sapiens, UniProt P45452); test: In vitro MMP inhibition, IC50 determination (fluorogenic substrate I); type: biochemical; conditions: value in parenthesis; read-out: MMP-13 (IC-50)
T1 construct: made in house; host or cells: baculovirus / insect cells
Description: Several hydroxamic acids and salts thereof were analyzed in in vitro assays to determine their ability to inhibit the MMP cleavage of peptide substrates. […] and IC50 constants were calculated from the assayed hydroxamic acid-MMP interactions.
Human recombinant MMP-1, MMP-2, MMP-9, MMP-13, and MMP-14 were used in this assay. All enzymes were prepared in Assignee's laboratories following usual laboratory procedures. Protocols for the preparation and use of these enzymes are available in the scientific literature. See, e.g., Enzyme Nomenclature (Academic Press, San Diego, Calif., 1992) (and the citations therein). See also, Freije et al., “Molecular cloning and expression of collagenase-3, a novel human matrix metalloproteinase produced by breast carcinomas,” J Biol. Chem., 269(24), 16766-16773 (1994).
The MMP-13 was obtained as a proenzyme from a full-length cDNA clone using baculovirus, as described by V. A. Luckow, “Insect Cell Expression Technology,” Protein Engineering: Principles and Practice, pp. 183-218 (edited by J. L. Cleland et al., Wiley-Liss, Inc., 1996). The expressed proenzyme was first purified over a heparin agarose column, and then over a chelating zinc chloride column. The proenzyme was then activated by APMA for use in the assay. Further details on baculovirus expression systems may be found in, for example, Luckow et al., J. Virol., 67, 4566-79 (1993). See also, O'Reilly et al, Baculovirus Expression Vectors: A Laboratory Manual (W.H. Freeman and Co., New York, N.Y., 1992). See also, King et al., The Baculovirus Expression System: A Laboratory Guide (Chapman & Hall, London, England, 1992).
All MMPs were activated using 4-aminophenylmercuric acetate (“APMA”, Sigma Chemical, St. Louis, Mo.) or trypsin. MMP-9 also was activated using human recombinant MMP-3 (purified in Assignee's laboratory following standard cloning and purification techniques).
Two fluorogenic, methoxycoumarin-containing polypeptide substrates were used in the MMP inhibition assays: [drawing 427] Here, “Dpa” is 3-(2,4-dinitrophenyl)-L-2,3-diaminopropionyl group, and “MCA” is 7-methoxycoumarin-4-yl acetyl. Substrate (I) was purchased from Baychem (Redwood City, Calif.), and substrate II was prepared Assignee's laboratory. Substrate I was used in the IC50 determination assays, while substrate II was used in the Ki determination assays. In the absence of MMP inhibitory activity, either substrate is cleaved at the Gly-Leu peptide bond. This cleavage separates the highly fluorogenic peptide from the 2,4-dinitrophenyl quencher, thus resulting in increase of fluorescent intensity.
The stock solutions of the assayed hydroxamic acids (or salts thereof) were prepared in 1% dimethyl sulfoxide (DMSO). These stock solutions were diluted in Buffer A (100 mM Tris-HCl, 100 mM NaCl, 10 mM CaCl2, 0.05% polyoxyethylene 23 lauryl ether, pH 7.5) to obtain solutions with different hydroxamic acid concentrations, i.e., assay solutions with different concentrations of the assayed MMP inhibitory compound. The experiment controls contained the same amount of Buffer A/DMSO as the assayed sample, but contained no hydroxamic acid (or salt thereof).
The assays from which the IC50 determinations were made were performed as follows. The MMPs were activated with either trypsin or APMA (4-aminophenylmercuric acetate, Sigma Chemical, St. Louis, Mo.). The assayed hydroxamic acid samples were incubated in Microfluor™ White Plates (Dynatech, Chantilly, Va.) and analyzed on a Perkin Elmer L550 plate reader (Norwalk, Conn.). The excitation wavelength was 328 nm, and the emission wavelength—415 nm. All samples (assayed hydroxamic acids and controls) were incubated in separate plates at room temperature in the presence of 4 μM of MMP substrate (I). As stated in the previous paragraph, samples containing varying concentrations of the same assayed hydroxamic acid were prepared. Inhibition was measured as a reduction in fluorescent intensity as a function of MMP inhibitor concentration. […]

MMP-1 = target: T2, MMP-1 (Homo sapiens, UniProt P03956); test: In vitro MMP inhibition, Ki determination (fluorogenic substrate II); type: biochemical; conditions: value not in parenthesis; read-out: MMP-1 Ki
T2 construct: made in house; host or cells: MMP-1-transfected HT-1080 cells (spent media)
T2 sequence (P03956 100-469): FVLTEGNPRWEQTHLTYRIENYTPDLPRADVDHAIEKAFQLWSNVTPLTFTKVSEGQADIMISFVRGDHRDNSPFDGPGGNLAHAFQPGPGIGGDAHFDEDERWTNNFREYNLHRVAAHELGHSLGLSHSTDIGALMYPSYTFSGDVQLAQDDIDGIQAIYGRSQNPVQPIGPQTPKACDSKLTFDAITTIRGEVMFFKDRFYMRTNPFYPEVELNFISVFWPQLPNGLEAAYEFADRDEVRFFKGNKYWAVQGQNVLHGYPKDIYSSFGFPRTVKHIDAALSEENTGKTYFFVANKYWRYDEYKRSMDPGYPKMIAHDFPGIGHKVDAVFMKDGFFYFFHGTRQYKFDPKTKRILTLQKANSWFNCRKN

Row | Structure (SMILES) | IC50 (MMP-13) | Ki (MMP-1)
1 | CCC(C)Cc1ccc(N2CCN(S(=O)(=O)C3(C(=O)NO)CCN(CCOC)CC3)CC2)cc1 (stereo not drawn) [Example 190] | 2.4 nM | > 10000 nM
2 | COCCN1CCC(C(=O)NO)(S(=O)(=O)N2CCN(c3ccccc3)CC2)CC1 [Example 195] | 11.5 nM | 2980 nM
3 | CCCCCc1ccc(N2CCN(S(=O)(=O)C3(C(=O)NO)CCOCC3)CC2)nn1 [Example 197] | 35.1 nM | > 10000 nM
4 | COCCN1CCC(C(=O)NO)(S(=O)(=O)N2CCN(c3ccc(CC(C)C)cc3)CC2)CC1 [Example 192] | 3.6 nM | > 10000 nM
5 | O=C(NO)C1(S(=O)(=O)N2CCN(c3ccc(Cl)nn3)CC2)CCOCC1 [Example 198] | 285 nM | 8650 nM
6 | CCc1ccc(N2CCN(S(=O)(=O)C3(C(=O)NO)CCN(CCOC)CC3)CC2)cc1 [Example 193] | 1.9 nM | 7180 nM
7 | COCCN1CCC(C(=O)NO)(S(=O)(=O)N2CCN(c3nc4ccccc4o3)CC2)CC1 [Example 196] | 177 nM | > 10000 nM
8 | COCCN1CCC(C(=O)NO)(S(=O)(=O)N2CCN(c3ccc(C)cc3)CC2)CC1 [Example 194] | 3.1 nM | 7730 nM
9 | CCCC(C)Cc1ccc(N2CCN(S(=O)(=O)C3(C(=O)NO)CCN(CCOC)CC3)CC2)cc1 (stereo not drawn) [Example 189] | 1 nM | > 10000 nM

More lines, now with the values ahead:

Row | IC50 (MMP-13) | Ki (MMP-1) | Structure (SMILES)
10 | 0.5 nM | 7360 nM | O=C(NO)C1(S(=O)(=O)N2CCN(c3ccc(OC(F)(F)F)cc3)CC2)CCN(C2CC2)CC1 [Example 203]
11 | 0.2 nM | > 10000 nM | CCCCCCc1ccc(N2CCN(S(=O)(=O)C3(C(=O)NO)CCN(CCOC)CC3)CC2)cc1 [Example 199]
12 | 0.6 nM | > 10000 nM | CCCc1ccc(N2CCN(S(=O)(=O)C3(C(=O)NO)CCN(CCOC)CC3)CC2)cc1 [Example 200]
13 | < 1 nM | > 10000 nM | COCCN1CCC(C(=O)NO)(S(=O)(=O)N2CCN(c3ccc(CCCCC(C)C)cc3)CC2)CC1 [Example 191]
14 | 0.8 nM | 2730 nM | COCCN1CCC(C(=O)NO)(S(=O)(=O)N2CCN(c3ccc(Br)cc3)CC2)CC1 [Example 201]
15 | 0.2 nM | 7520 nM | COCCN1CCC(C(=O)NO)(S(=O)(=O)N2CCN(c3ccc(OC(F)(F)F)cc3)CC2)CC1 [Example 202]
